Laboratory results from ChEMBL document CHEMBL2177042, “Design, synthesis, and antidiabetic activity of 4-phenoxynicotinamide and 4-phenoxypyrimidine-5-carboxamide derivatives as potent and orally efficacious TGR5 agonists” (J Med Chem, 2012).

How the values were obtained:
Type in all cases: ADME, organism-based
[1] = Tmax in Sprague-Dawley rat at 5 mg/kg, po; parameters: dose 5 mg/kg, route oral; conditions: in vivo
[2] = Cmax in ICR mouse plasma at 50 mg/kg, po; parameters: dose 50 mg/kg, route oral
[3] = Drug level in ICR mouse bile at 50 mg/kg, po after 4.5 hrs; parameters: dose 50 mg/kg, route oral; conditions: read-out: Drug uptake
[4] = AUC (0 to t) in Sprague-Dawley rat at 5 mg/kg, po; parameters: dose 5 mg/kg, route oral; conditions: plasma
[5] = Cmax in ICR mouse gall bladder at 50 mg/kg, po; parameters: dose 50 mg/kg, route oral
[6] = Half life in Sprague-Dawley rat at 5 mg/kg, po; parameters: dose 5 mg/kg, route oral; conditions: in vivo
[7] = Drug level in ICR mouse gall bladder at 50 mg/kg, po after 2.5 hrs; parameters: dose 50 mg/kg, route oral; conditions: read-out: Drug uptake
[8] = Cmax in Sprague-Dawley rat at 5 mg/kg, po; parameters: dose 5 mg/kg, route oral; conditions: in vivo
[9] = AUC (0 to infinity) in Sprague-Dawley rat at 5 mg/kg, po; parameters: time infinity, dose 5 mg/kg, route oral; conditions: plasma
[10] = Drug level in ICR mouse bile at 50 mg/kg, po after 0.5 hrs; parameters: dose 50 mg/kg, route oral; conditions: read-out: Drug uptake
[11] = Drug level in ICR mouse gall bladder at 50 mg/kg, po after 0.5 hrs; parameters: dose 50 mg/kg, route oral; conditions: read-out: Drug uptake
[12] = Drug level in ICR mouse bile at 50 mg/kg, po after 2.5 hrs; parameters: dose 50 mg/kg, route oral; conditions: read-out: Drug uptake
[13] = Drug level in ICR mouse gall bladder at 50 mg/kg, po after 4.5 hrs; parameters: dose 50 mg/kg, route oral; conditions: read-out: Drug uptake
[14] = Cmax in ICR mouse bile at 50 mg/kg, po; parameters: dose 50 mg/kg, route oral
[15] = Plasma concentration in ICR mouse at 50 mg/kg, po after 4.5 hrs; parameters: dose 50 mg/kg, route oral
[16] = Drug level in ICR mouse bile at 50 mg/kg, po after 1 hr; parameters: dose 50 mg/kg, route oral; conditions: read-out: Drug uptake
[17] = MRT in Sprague-Dawley rat at 5 mg/kg, po; parameters: dose 5 mg/kg, route oral; conditions: in vivo
[18] = Plasma concentration in ICR mouse at 50 mg/kg, po after 2.5 hrs; parameters: dose 50 mg/kg, route oral
[19] = Drug level in ICR mouse gall bladder at 50 mg/kg, po after 1 hr; parameters: dose 50 mg/kg, route oral; conditions: read-out: Drug uptake
[20] = Plasma concentration in ICR mouse at 50 mg/kg, po after 1 hr; parameters: dose 50 mg/kg, route oral
[21] = AUC (0 to 4.5 hrs) in ICR mouse bile at 50 mg/kg, po; parameters: time < 4.5 hr, dose 50 mg/kg, route oral
[22] = Plasma concentration in ICR mouse at 50 mg/kg, po after 0.5 hrs; parameters: dose 50 mg/kg, route oral
[23] = AUC (0 to 4.5 hrs) in ICR mouse plasma at 50 mg/kg, po; parameters: time < 4.5 hr, dose 50 mg/kg, route oral
[24] = AUC (0 to 4.5 hrs) in ICR mouse gall bladder at 50 mg/kg, po; parameters: time < 4.5 hr, dose 50 mg/kg, route oral

- Tmax [1]: 0.9 h
- Cmax [2]: 3600 nM
- concentration at 4.5 h [3]: 2000 nM
- AUC(0-t) [4]: 147 ng·h/mL
- Cmax [5]: 523 ng/g
- half-life [6]: 1.5 h
- concentration at 2.5 h [7]: 306 ng/g
- Cmax [8]: 56 ng/mL
- AUC(0-inf) [9]: 155 ng·h/mL
- concentration at 0.5 h [10]: 1700 nM
- concentration at 0.5 h [11]: 294 ng/g
- concentration at 2.5 h [12]: 2000 nM
- concentration at 4.5 h [13]: 217 ng/g
- Cmax [14]: 3700 nM
- concentration at 4.5 h [15]: 510 nM
- concentration at 1 h [16]: 2100 nM
- MRT [17]: 2.4 h
- concentration at 2.5 h [18]: 2000 nM
- concentration at 1 h [19]: 393 ng/g
- concentration at 1 h [20]: 2300 nM
- AUC(0-t) at 4.5 h [21]: 3380 ng·h/mL
- concentration at 0.5 h [22]: 3100 nM
- AUC(0-t) at 4.5 h [23]: 3130 ng·h/mL
- AUC(0-t) at 4.5 h [24]: 1290 ng·h/mL
SMILES: Cc1ccc(C)c(Oc2ccncc2C(=O)N2CCN(C3CC3)c3ccccc32)c1
